≈ marks a conversion by molar mass, not a printed value. Where two headings read alike, the source gives them in different places. Numbered stars: 1 amine (or outer) side, 2 acyl side, 3 side chain; on linkers, the order of the positions; unused ones are H or OH. Bridge positions count the residues as written; N and C are the ends. Square brackets hold non-standard residues; d marks the D form. Peptide text beside a SMILES is read from it. * marks the point of attachment. ξ: configuration not given here. NMeTrp(4-OMe) = CN[CH](Cc1c[nH]c2cccc(OC)c12)C(=O)O; X1 = O=C(C(N[*:1])C(O)c1ccccc1)[*:2]; NMeI = CC[CH](C)[CH](NC)C(=O)O; ξNMe2Val = CC(C)C(C(=O)*)N(C)C; NMeT = CN[CH](C(=O)O)[CH](C)O; NMeL = CN[CH](CC(C)C)C(=O)O; NMeV = CN[CH](C(=O)O)C(C)C
Key:
[1] = test system: Nonomuraea sp. MJM5123; test: Antibiotic resistance test of the producing strain; assay type: cell-based; settings: ISP2 medium, 2 weeks at 28° C.; for Growth in the presence of antibiotics: 50 μg/ml
Experimental: To test for melanoid pigments, peptone yeast extract iron agar (ISP6) and tyrosine agar (ISP7, with or without tyrosine) was used. Temperature range, NaCl tolerance and pH range for growth was determined on ISP3 medium and antibiotic resistance test was performed on ISP2 medium for 2 weeks at 28° C.

[2] = test system: M. tuberculosis X003899; settings: IndoOceanic clade, strain X003899
[3] = test system: nonreplicating M. tuberculosis; assay type: cell-based, Mycobacterium tuberculosis; settings: for concentration effecting a 99% reduction in viability (MBC under low oxygen): 10 days incubation under non-replicating conditions, cfu readout; for concentration reducing viability of non-replicating M. tuberculosis by one log10: LORA
[4] = test system: M. abscesses; test: Antibacterial selectivity MIC; assay type: cell-based, Mycobacterium abscessus; settings: for activity: M. abscesses, compared with the other mycobacteria; for MIC: M. abscessus
Experimental: (§1) Selectivities of H-14 and H-16 were determined by screening them against Escherichia coli, a Gram-negative bacterium, Staphylococcus aureus, a Gram-positive bacterium, Candida albicans, a yeast, and six mycobacterial species (Table 16).

[5] = test system: M. tuberculosis X005319; settings: Euro-American clade, strain X005319
[6] = test system: M. tuberculosis X004244; settings: East Asian clade, strain X004244
[7] = test system: Candida albicans; test: Antibacterial selectivity MIC; assay type: cell-based; settings: C. albicans; for activity: at 31 μM
Experimental: as §1

[8] = test system: Escherichia coli; test: Antibacterial selectivity MIC; assay type: cell-based; settings: E. coli; for activity: at 31 μM
Experimental: as §1

[9] = test system: Staphylococcus aureus; test: Antibacterial selectivity MIC; assay type: cell-based; settings: S. aureus; for activity: at 31 μM
Experimental: as §1

[10] = test system: M. tuberculosis H37Rv; test: Aerobic MBC99; assay type: cell-based, Mycobacterium tuberculosis; settings: for classification from MBC99 versus MIC: MBC99 approximately two-fold higher than MIC; for MBC99: aerobic, H37Rv, minimum concentration that kills 99% of organisms
[11] = test system: M. tuberculosis X001354; settings: East African Indian clade, strain X001354
[12] = test system: Vero cells; test: Toxicity against mammalian cells (Vero); assay type: cell-based, African green monkey; settings: for IC50: Vero cells, read-out: Vero cell IC50; for in vitro mammalian cell toxicity: at 100-fold their MBC; for cytotoxicity: highest testing concentration (32 μM)
Experimental: Cytoxicities of H-14 and H-16 against mammalian cells were evaluated by testing against Vero cells, an African green monkey kidney cell line (Table 18). No cytoxicity was found for either compound at even the highest testing concentration (32 μM).

[13] = test system: M. tuberculosis X005282; settings: Euro-American clade, strain X005282
[14] = test system: M. tuberculosis H37Rv
[15] = test system: M. tuberculosis H37Pv; assay type: cell-based, Mycobacterium tuberculosis
[16] = test system: M. tuberculosis X004439; settings: East Asian clade, strain X004439
[17] = test system: M. smegmatis; test: Antibacterial selectivity MIC; assay type: cell-based, Mycobacterium smegmatis; settings: compared with M. tuberculosis
Experimental: as §1

[18] = test system: M. tuberculosis H37Rv; test: microbe, parasite or virus in culture; settings: Mycobacterium tuberculosis
[19] = aerobic, replicating M. tuberculosis H37Rv, concentration inhibiting growth by 90%

CC1(C)S[C@@H]2[C@H](NC(=O)[C@H](N)c3ccccc3)C(=O)N2[C@H]1C(=O)O [Ampicillin]
Growth in the presence of antibiotics [1]: +
susceptibility of MJM5123 to the antibiotic [1]: resistant

CN[C@@H]1[C@@H](O[C@H]2O[C@H](CO)[C@@H](N)[C@H](O)[C@H]2O)OC2C[C@@H](N)[C@@H](O[C@H]3[C@H](O)[C@@H](O)[C@H](N)C[C@@H]3N)OC2[C@@H]1O (stereo partly shown) [Apramycin]
Growth in the presence of antibiotics [1]: −
susceptibility of MJM5123 to the antibiotic [1]: susceptible

CCC(C)C(C(=O)NC1C(=O)N(C)C(C(C)O)C(=O)NC(C(C)C)C(=O)N(C)C(CC(C)C)C(=O)NC(C(C)C)C(=O)N(C)C(C(C)C)C(=O)N(C)C(Cc2c[nH]c3cccc(OC)c23)C(=O)NC(C(C)C)C(=O)NC(C(O)c2ccccc2)C(=O)NC(C(C)C)C(=O)OC1C)N(C)C(=O)C(NC(=O)C(C(C)C)N(C)C)C(C)C (stereo not shown) [H-14] (ξNMe2Val-V[NMeI]T[NMeT]V[NMeL]V[NMeV][NMeTrp(4-OMe)]V[X1]V; ester 3-C; configuration not given here)
MIC [2]: 0.23 µM (≈ 0.368 µg/mL)
concentration effecting a 99% reduction in viability (MBC under low oxygen) [3]: approximately 1.5 μM
concentration reducing viability of non-replicating M. tuberculosis by one log10 [3]: approximately 1.5 μM
activity [4]: significantly less active
MIC [4]: >63 µM
MIC [5]: 0.36 µM (≈ 0.576 µg/mL)
MIC [6]: 0.13 µM (≈ 0.208 µg/mL)
MIC [7]: >32 µM
antimicrobial activity [7]: Neither of the compounds displayed antimicrobial activity
activity [7]: no activity
MIC [8]: >32 µM
antimicrobial activity [8]: Neither of the compounds displayed antimicrobial activity
activity [8]: no activity
MIC [9]: >32 µM
antimicrobial activity [9]: Neither of the compounds displayed antimicrobial activity
activity [9]: no activity
classification from MBC99 versus MIC [10]: bactericidal
MBC99 [10]: 0.34 µM (≈ 0.544 µg/mL)
MIC [11]: 0.38 µM (≈ 0.608 µg/mL)
IC50 [12]: > 32 µM
in vitro mammalian cell toxicity [12]: no in vitro mammalian cell toxicity
cytotoxicity [12]: No cytoxicity
MIC [13]: 0.14 µM (≈ 0.224 µg/mL)
MIC ([14]; H37Rv reference in Table 15): 0.38 µM (≈ 0.608 µg/mL)
MIC ([14]; H37Rv reference in Table 19): 0.16 µM (≈ 0.256 µg/mL)
MIC [14, 19]: 0.16 µM (≈ 0.256 µg/mL)
MIC vs. M. tuberculosis ([15]; 0.5% BSA): 0.16 µM (≈ 0.256 µg/mL)
MIC vs. M. tuberculosis ([15]; 4% BSA): 0.58 µM (≈ 0.928 µg/mL)
MIC vs. M. tuberculosis ([15]; 10% BSA): 0.36 µM (≈ 0.576 µg/mL)
MIC [16]: 0.29 µM (≈ 0.464 µg/mL)
activity [17]: activity was lower

CCC(C)C(C(=O)NC1C(=O)N(C)C(C(C)O)C(=O)NC(C(C)C)C(=O)N(C)C(CC(C)C)C(=O)NC(C(C)C)C(=O)N(C)C(C(C)C)C(=O)N(C)C(Cc2c[nH]c3cccc(OC)c23)C(=O)NC(C(C)C)C(=O)NC(Cc2ccccc2)C(=O)NC(C(C)C)C(=O)OC1C)N(C)C(=O)C(NC(=O)C(C(C)C)N(C)C)C(C)C (stereo not shown) [H-16] (ξNMe2Val-V[NMeI]T[NMeT]V[NMeL]V[NMeV][NMeTrp(4-OMe)]VFV; ester 3-C; configuration not given here)
MIC [2]: 0.19 µM (≈ 0.301 µg/mL)
concentration effecting a 99% reduction in viability (MBC under low oxygen) [3]: approximately 1.5 μM
concentration reducing viability of non-replicating M. tuberculosis by one log10 [3]: approximately 1.5 μM
activity [4]: significantly less active
MIC [4]: >32 µM
MIC [5]: 0.34 µM (≈ 0.539 µg/mL)
MIC [6]: 0.09 µM (≈ 0.143 µg/mL)
MIC [7]: >32 µM
antimicrobial activity [7]: Neither of the compounds displayed antimicrobial activity
activity [7]: no activity
MIC [8]: >32 µM
antimicrobial activity [8]: Neither of the compounds displayed antimicrobial activity
activity [8]: no activity
MIC [9]: >32 µM
antimicrobial activity [9]: Neither of the compounds displayed antimicrobial activity
activity [9]: no activity
classification from MBC99 versus MIC [10]: bactericidal
MBC99 [10]: 0.19 µM (≈ 0.301 µg/mL)
MIC [11]: 0.37 µM (≈ 0.586 µg/mL)
IC50 [12]: > 32 µM
in vitro mammalian cell toxicity [12]: no in vitro mammalian cell toxicity
cytotoxicity [12]: No cytoxicity
MIC [13]: 0.14 µM (≈ 0.222 µg/mL)
MIC ([14]; H37Rv reference in Table 15): 0.37 µM (≈ 0.586 µg/mL)
MIC ([14]; H37Rv reference in Table 19): 0.16 µM (≈ 0.253 µg/mL)
MIC [14, 19]: 0.16 µM (≈ 0.253 µg/mL)
MIC [16]: 0.19 µM (≈ 0.301 µg/mL)
activity [17]: activity was lower

NC[C@H]1O[C@H](O[C@H]2[C@H](O)[C@@H](O[C@H]3O[C@H](CO)[C@@H](O)[C@H](N)[C@H]3O)[C@H](N)C[C@@H]2N)[C@H](O)[C@@H](O)[C@@H]1O [Kanamycin]
Growth in the presence of antibiotics [1]: −

C=C(NC(=O)C(=C)NC(=O)c1csc(C2=N[C@@H]3c4csc(n4)[C@H]4NC(=O)c5csc(n5)[C@H]([C@](C)(O)[C@@H](C)O)NC(=O)[C@H]5CSC(=N5)/C(=C/C)NC(=O)[C@H]([C@@H](C)O)NC(=O)c5csc(n5)[C@]3(CC2)NC(=O)[C@H](C)NC(=O)C(=C)NC(=O)[C@H](C)NC(=O)[C@H]([C@@H](C)CC)N[C@@H]2C=Cc3c([C@H](C)O)cc(nc3[C@H]2O)C(=O)O[C@@H]4C)n1)C(N)=O [Thiostrepton]
Growth in the presence of antibiotics [1]: −
susceptibility of MJM5123 to the antibiotic [1]: susceptible

CN[C@H](CC(C)C)C(=O)N[C@H]1C(=O)N[C@@H](CC(N)=O)C(=O)N[C@H]2C(=O)N[C@H]3C(=O)N[C@H](C(=O)N[C@H](C(=O)O)c4cc(O)cc(O)c4-c4cc3ccc4O)[C@H](O)c3ccc(c(Cl)c3)Oc3cc2cc(c3O[C@@H]2O[C@H](CO)[C@@H](O)[C@H](O)[C@H]2O[C@H]2C[C@](C)(N)[C@H](O)[C@H](C)O2)Oc2ccc(cc2Cl)[C@H]1O [Vancomycin]
Growth in the presence of antibiotics [1]: −
susceptibility of MJM5123 to the antibiotic [1]: susceptible

NNC(=O)c1ccncc1 [isoniazid]
MIC [18]: 0.47 µM (≈ 0.0645 µg/mL)

CO[C@H]1/C=C/O[C@@]2(C)Oc3c(C)c(O)c4c(O)c(c(/C=N/N5CCN(C)CC5)c(O)c4c3C2=O)NC(=O)/C(C)=C\C=C\[C@H](C)[C@H](O)[C@@H](C)[C@@H](O)[C@@H](C)[C@H](OC(C)=O)[C@@H]1C [rifampin]
MIC [18]: 0.09 µM (≈ 0.0741 µg/mL)
